Data taken from patent US20190134145A1, “METHOD FOR TREATING COGNITIVE DYSFUNCTION” (ARIZONA BOARD OF REGENTS ON BEHALF OF THE UNIVERSITY OF …, priority 2013, published 2019).

Columns and labels:
[1] = tested on: Paraventricular neurons; test: Reactive oxygen species production (DHE/ethidium fluorescence) in neurons challenged with aldosterone; type: cell-based, SD rats; conditions: mean±SE
Description: Paraventricular neurons were isolated from 22 day old female SD rats, dissociated and cultured on round coverslips and maintained in HBSS media for at least 48 hours prior to visualization by confocal microscopy. All cells were pre-incubated in 10 nM ALDO for 48 hours and then 1.0 μM Ang-(1-7) or 1.0 μM Ang-(1-7)+10.0 μM […] for 2 hours prior to testing with acute 1.0 μM Aldo. To measure ROS, changes in the ethidium fluorescence were measured which is directly proportional to the oxidation of dihydroethidium (DHE) by ROS. The cells were loaded with DHE (20 μM) added to the cell culture media for 1 h and then placed in a chamber for microscopic visualization of fluorescence. One-way ANOVAs for the experimental groups response to acute Aldo was determined. After establishing a significant ANOVA, post-hoc analyses were performed with Tukey multiple comparison tests between pairs of mean change scores. All data are expressed as means±SE. Statistical significance was set at P<0.05. Perfusion with 1.0 μM ALDO increased ROS (D=113.4+28%) in the PVN neurons. […] Pre-incubation in Ang-(1-7)+[…], restored the ALDO increase in ROS (Delta=105.9+9%). Change in ROS production was standardized relative to control state prior to ALDO treatment during ACSF incubation. ANOVA followed by Tukey's post hoc test was used for statistical comparisons between control and ALDO treatment. […]

[2] = tested on: CHF mice; test: Spontaneous (novel) object recognition (SOR) test in mice with congestive heart failure after myocardial infarction; type: in vivo; conditions: CHF mice (n=6), 50 mcg/kg/hr subcutaneously from 8 weeks post MI, after 3 weeks of treatment; controls +0.25±0.2, CHF+saline −0.21±0.1
Description: Mice were 12 weeks post MI or sham surgery. Six mice were MI+Ang(1-7); three mice were MI+saline; and four mice were Sham+Ang (1-7). Alzet pumps with either Ang(1-7) or saline were implanted sq 3 weeks prior to NOR test. Novel object recognition test was performed 3 weeks post pump implant. Data shown are 1st 2 min of “test phase” DRatio=(t novel−t familiar)/(t novel+t familiar). A positive score indicates more time spent with the novel object, a negative score indicates more time spent with the familiar object, and a zero score indicates a null preference. *=p<0.05, #=p<0.05. ANOVA+posthoc Turkey test.
Myocardial infarction and subsequent CHF was induced by ligation of the left coronary artery. By week 4 and week 8 post MI, CHF mice (n=15) had approximately 50 and 70% decline in ejection fraction as measured by echocardiography. For the object recognition SOR test at 8 weeks post MI, discrimination ratios were calculated from the time spent exploring the novel versus familiar object during the test phase. […]
In addition, the invention provides a preclinical animal model of cardiovascular disease and congestive heart failure induced cognitive dysfunction. […] By week 4 and week 8 post MI, cardiovascular disease and congestive heart failure mice (n=15) had approximately 50 and 70% decline in ejection fraction as measured by echocardiography. […]

[3] = tested on: CHF mice; test: Morris water maze task (spatial memory) in mice with congestive heart failure after myocardial infarction; type: in vivo; conditions: 50 mcg/kg/hr subcutaneously for 4 weeks from 8 weeks post MI, first day of testing
Description: Prior to MI, the controls and CHF mice groups performed similarly on the Morris water task. Myocardial infarction and subsequent CHF was induced by ligation of the left coronary artery. By week 4 and week 8 post MI, CHF mice had approximately 50 and 70% decline in ejection fraction as measured by echocardiography. […] Animals were tested over 4 days with 6 spatial trials per day.
(§1) In addition, the invention provides a preclinical animal model of cardiovascular disease and congestive heart failure induced cognitive dysfunction. A total of 26, male C57B1/6J mice were randomly assigned to the control group or cardiovascular disease and congestive heart failure group. Myocardial infarction was induced by ligation of the left coronary artery. By week 4 and week 8 post MI, cardiovascular disease and congestive heart failure mice (n=15) had approximately 50 and 70% decline in ejection fraction as measured by echocardiography. Mice were tested for changes in spatial learning memory via the Morris water task and object recognition via the standard spontaneous object recognition (SOR) task at 4 and 8 weeks post MI. At 8 weeks post MI, a subgroup of cardiovascular disease and congestive heart failure mice (n=6) and the control mice (n=4) were given 50 mcg/kg/hr Angiotensin (1-7) or saline subcutaneously for 4 weeks and then cognitive function was retested. […]

[4] = tested on: CHF mice; test: Ejection fraction by echocardiography in CHF mice; type: in vivo; conditions: systemic treatment 50 mcg/kg/hr subcutaneously
Description: Myocardial infarction and subsequent CHF was induced by ligation of the left coronary artery. By week 4 and week 8 post MI, CHF mice (n=15) had approximately 50 and 70% decline in ejection fraction as measured by echocardiography. For the object recognition SOR test at 8 weeks post MI, discrimination ratios were calculated from the time spent exploring the novel versus familiar object during the test phase. […] At 8 weeks post MI, a subgroup of CHF mice (n=6) and controls (n=4) were given 50 mcg/kg/hr Angiotensin (1-7) or saline subcutaneously for 4 weeks and then cognitive function was retested.
as §1, with “MI.” for “MI. At 8 weeks post MI, a subgroup of cardiovascular disease and congestive heart failure mice (n=6) and the control mice (n=4) were given 50 mcg/kg/hr Angiotensin (1-7) or saline subcutaneously for 4 weeks and then cognitive function was retested.”

Compound | Change in ROS (D) relative to control state prior to ALDO treatment ([1]; PVN neurons, perfusion with 1.0 μM ALDO, no Ang-(1-7) pre-incubation) | SOR discrimination ratio [2] | Performance in Morris water maze task after treatment [3] | Change in ROS (D) on ALDO, relative to control state prior to ALDO treatment ([1]; PVN neurons pre-incubated 2 hours in 1.0 μM Ang-(1-7), then acute 1.0 μM ALDO) | Ejection fraction [4]
C[C@]12CCC(=O)C=C1CC[C@@H]1[C@@H]2[C@@H](O)C[C@]2(C=O)[C@@H](C(=O)CO)CC[C@@H]12 [ALDO, Aldosterone, reference compound] | 113.4+28% | – | – | – | –
angiotensin-(1-7) (DRVYIHP; Angiotensin 1-7; UniProt P01019 25-31, looked up) [Ang-(1-7), endogenous peptide derived from Angiotensin II via ACE2] | – | +0.43±0.1 | significant improvement on object recognition memory on the first day of testing | 6.4+27% | not significantly impacted
